Patent US9801404B2, “IGF-1 production-promoting agent” (MORINAGA MILK INDUSTRY CO., LTD., priority 2012, dated 2017)
“And” between values parts separate entries of the source, which are not always exact repeats. Identical values can stand only once.

Experiments:
p70S6K1 = experiment: Phosphorylation ratio of p70S6K1 in gastrocnemius at recovery from tail-suspension muscular atrophy; assay type: in vivo, C57BL/6J mice; settings: mice after tail suspension; feed with 0.04 mass % tangeretin for 3 days
Excerpt: (§1) Male C57BL/6J mice (10-week old) were preliminarily bred for one week, and divided into six groups (control group (Cont), standard feed administration after tail suspension group (Fix), Citrus depressa extract administration after tail suspension group (Fix+SE), polymethoxyflavonoid administration after tail suspension group (Fix+PMF), nobiletin administration after tail suspension group (Fix+NOB), and tangeretin administration after tail suspension group (Fix+TAN), n=8 for the Cont, Fix, Fix+SE, Fix+PMF, Fix+NOB, and Fix+TAN groups).
(§2) After the preliminary breeding, muscular atrophy was induced in the mice of the Fix and Fix+SE groups by tail suspension for two weeks. […]
On day 4 after the change of the feed, the mice were dissected, and the serum IGF-1 concentration, expression of follistatin mRNA in the gastrocnemius, expression of IGF-1 mRNA in the gastrocnemius, and phosphorylation ratio (β+γ) of p70S6K1 in the gastrocnemius were evaluated. […]
(§3) The serum IGF-1 concentration was measured in the same manner as that used in Example 1. The expression of follistatin mRNA in the gastrocnemius was measured in the same manner as that used in Example 1, except that the hind leg gastrocnemius was extracted from each […], and Assay ID Mm00514982_ml (Applied Biosystems) was used as the primer. […]

[1] = test system: IGF-1 mRNA in gastrocnemius; experiment: Expression of IGF-1 mRNA in gastrocnemius at recovery from tail-suspension muscular atrophy; assay type: in vivo, C57BL/6J mice; settings: mice after tail suspension; feed with 0.07 mass % nobiletin for 3 days
Excerpt: as §1, §2
On day 4 after the change of the feed, the mice were dissected, and the serum IGF-1 concentration, expression of follistatin mRNA in the gastrocnemius, expression of IGF-1 mRNA in the gastrocnemius, and phosphorylation ratio (β+γ) of p70S6K1 in the gastrocnemius were evaluated.
as §3

SMILES | Phosphorylation ratio of p70S6K1, Fix+TAN group compared with the Fix group (p70S6K1) | Phosphorylation ratio of p70S6K1 in gastrocnemius (β + γ) (%) (p70S6K1) | Expression of IGF-1 mRNA in gastrocnemius (AU) [1] | Expression of IGF-1 mRNA in gastrocnemius, Fix+NOB group compared with the Fix group [1]
COc1ccc(-c2cc(=O)c3c(OC)c(OC)c(OC)c(OC)c3o2)cc1 [TAN, tangeretin] | 112% | 47.8±11.8% and 47.8% | – | –
COc1ccc(-c2cc(=O)c3c(OC)c(OC)c(OC)c(OC)c3o2)cc1OC [NOB, nobiletin] | – | – | 1.75±0.40 AU and 1.75 AU | 107%
